Read-outs that look alike come from different tables or passages of the source.
Molecular target: T1, human GR (Homo sapiens, UniProt P04150)
T1 sequence (P04150 1-777): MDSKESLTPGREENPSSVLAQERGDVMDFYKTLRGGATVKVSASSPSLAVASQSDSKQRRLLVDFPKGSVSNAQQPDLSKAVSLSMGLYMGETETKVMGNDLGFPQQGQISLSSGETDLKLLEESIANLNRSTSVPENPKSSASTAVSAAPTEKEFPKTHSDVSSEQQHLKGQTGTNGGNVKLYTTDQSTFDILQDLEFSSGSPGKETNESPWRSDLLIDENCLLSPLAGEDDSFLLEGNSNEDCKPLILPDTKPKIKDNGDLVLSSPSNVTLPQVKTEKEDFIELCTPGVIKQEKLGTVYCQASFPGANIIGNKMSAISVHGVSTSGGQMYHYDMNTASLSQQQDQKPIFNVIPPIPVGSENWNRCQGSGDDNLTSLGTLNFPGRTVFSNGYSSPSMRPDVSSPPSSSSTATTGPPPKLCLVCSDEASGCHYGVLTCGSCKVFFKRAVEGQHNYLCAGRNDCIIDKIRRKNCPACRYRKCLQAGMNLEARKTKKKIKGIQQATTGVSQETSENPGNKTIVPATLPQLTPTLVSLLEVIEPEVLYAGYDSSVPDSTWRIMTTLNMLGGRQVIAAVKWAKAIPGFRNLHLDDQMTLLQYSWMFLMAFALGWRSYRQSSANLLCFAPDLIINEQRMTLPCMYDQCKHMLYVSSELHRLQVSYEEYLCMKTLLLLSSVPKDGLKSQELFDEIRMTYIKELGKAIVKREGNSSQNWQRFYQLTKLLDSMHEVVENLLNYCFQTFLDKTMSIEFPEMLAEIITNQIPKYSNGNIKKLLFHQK
Assay: Transrepression Assay (GITAR), TNFα-β-lactamase reporter in U937 cells
Assay type: cell-based
Parameters: U937 cells contain an endogenous glucocorticoid receptor (GR); endogenous in cells; host or cells: U937 cells stably transfected with the TNF-alpha promoter/beta-lactamase reporter
Details: for GITAR > GRAMM % SEP: GITAR Emax minus GRAMMER Emax; for EC50: U937 cells, inflection point, read-out: Transrepression U937 Cells GITAR IP
Procedure, shortened: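 U937 cells stably carrying a TNF-α promoter–β-lactamase reporter, with endogenous GR, are preincubated with compound 30–45 min at 37 °C, then stimulated with PMA (5 ng/ml final) and LPS (100 ng/ml final) overnight (~18 hr). β-Lactamase is read with CCF2-AM substrate; repression by 100 nM dexamethasone defines 100%.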

[1] = U-937, U937 cells, maximum activity, read-out: Transrepression U937 Cells GITAR Emax
[2] = U-937, activity repressed by 100 nM dexamethasone alone set as 100%, read-out: maximal activity in the transrepression (GITAR) assay

| GITAR > GRAMM % SEP | EC50 | Emax [1] | Emax [2] | SMILES |
| --- | --- | --- | --- | --- |
| 20.8% | 231 nM | 71.8% | > 5% | CC(C1CCC2=Cc3c(cnn3-c3ccc(F)cc3)C[C@@]21C)N(CCc1ccccc1F)S(=O)(=O)CC(F)(F)F (stereo partly drawn) [Example 93, 2,2,2-trifluoro-N-[2-(2-fluorophenyl)ethyl]-N-{1-[(4αR)-1-(4-fluorophenyl)-4α-methyl-1,4,4α,5,6,7-hexahydrocyclopenta[f]indazol-5-yl]ethyl}ethanesulfonamide] |
| 31.6% | 412 nM | 75.5% | > 5% | COCCN(C[C@H]1CCC2=Cc3c(cnn3-c3ccc(F)cc3)C[C@@]21C)S(=O)(=O)c1ccccc1F [Example 94, 2-fluoro-N-{[(4αR,5S)-1-(4-fluorophenyl)-4α-methyl-1,4,4α,5,6,7-hexahydrocyclopenta[f]indazol-5-yl]methyl}-N-(2-methoxyethyl)benzenesulfonamide] |
